Residues, ends and D or L forms follow the SMILES beside them.
Experiments:
[1] = test system: Huh7 cells; experiment: Cellular peptide uptake, western blot; type: in vitro ADME, human; details: biotin-labeled peptide 15 μM, 30 min, TAT versus TAT-LOF sequence
Protocol: d) Huh7 cells were incubated for 30 min with biotin-labeled Insig1/2 loop1 peptide (15 μM), either with TAT or TAT loss of function (TAT-LOF) sequence, with subsequent western blot analysis of cellular peptide uptake.

[2] = test system: Insig1 pS207/Insig2 pS151, SREBP1, Ki67; experiment: IHC analysis of mouse tumors derived from Huh7 cells; type: in vivo, BALB/c athymic nude mice; details: peptide given as LNP@Insig1/2 loop 1 peptide 10 mg/kg iv, lenvatinib mesylate 2 mg/kg oral
Protocol: (§1) Representative micrographs are shown (scale bar: 20 µm). b,c) Cryosections of mouse tumor tissues were prepared for histological analysis. (b) Lipid accumulation was assessed by Oil Red O staining. Representative micrographs are shown (scale bar: 20 µm). (c) Apoptotic cells were detected by TUNEL assay. Representative micrographs are shown (scale bar: 20 µm). d,e) Quantitative analysis of (d) apoptotic areas (TUNEL‐positive regions) and (e) lipid droplet counts (Oil Red O‐positive particles) was performed. Data represent the mean ± SD (n = 4). Statistical significance was determined by one‐way analysis of variance (ANOVA). ** p < 0.01, **** p < 0.0001, ns, no significance.
As described previously,^[ [39] ^] IHC staining was performed using the Vectastain ABC kit (Vector Laboratories) according to the manufacturer's instructions. Sections of paraffin‐embedded xenograft tumors were stained with antibodies against Ki67, SREBP1, Insig1 pS207/Insig2 pS151, and nonspecific IgG was used as a negative control. Paraffin‐embedded human liver tumor sections were stained with antibodies against Ki67, SREBP1, Insig1 pS207/Insig2 pS151, with nonspecific IgG as a negative control. The tissue sections were quantitatively scored according to the percentage of positive cells and staining intensity. […] The intensity of staining was rated on a scale of 0 to 3: 0, negative; 1, weak; 2, moderate; and 3, strong. The study then combined the proportion and intensity scores to obtain a total score (range, 0–8).

[3] = test system: lipid accumulation in tumor tissues; experiment: Oil Red O staining of tumor tissues; type: in vivo, BALB/c athymic nude mice; details: cryosections of Huh7 tumors, n = 4; peptide given as LNP 10 mg/kg iv; lenvatinib mesylate 2 mg/kg oral
Protocol: as §1
Cryosections 6–8 µm in thickness were air‐dried and fixed with formaldehyde for 5–10 min. Then, the slides were placed in absolute propylene glycol for 2–5 min and stained with 0.5% Oil red O dye. After staining, the slides were rinsed, counterstained with Mayer's hematoxylin for 1 min, and mounted in glycerin.

[4] = test system: tumor cell apoptosis; experiment: TUNEL assay of tumor tissues; type: in vivo, BALB/c athymic nude mice; details: cryosections of Huh7 tumors, n = 4; peptide given as LNP 10 mg/kg iv; lenvatinib mesylate 2 mg/kg oral
Protocol: as §1
Mouse tumor tissues were sectioned at 5 µm thickness. Apoptotic cells were counted using the colorimetric TUNEL System (Beyotime, C1091) according to the manufacturer's instructions. The total numbers of apoptotic cells were counted in six high‐power fields and presented as an average number of apoptotic cells per high‐power fields.

[5] = molecular target: T1, S90-phosphorylated GST-PCK1 (human, UniProt P35558 1-622, phosphoserine at 90; biotin (G-MM-IGT Biotinylation kit)); experiment: BLI; phosphorylated S90
T1 chain: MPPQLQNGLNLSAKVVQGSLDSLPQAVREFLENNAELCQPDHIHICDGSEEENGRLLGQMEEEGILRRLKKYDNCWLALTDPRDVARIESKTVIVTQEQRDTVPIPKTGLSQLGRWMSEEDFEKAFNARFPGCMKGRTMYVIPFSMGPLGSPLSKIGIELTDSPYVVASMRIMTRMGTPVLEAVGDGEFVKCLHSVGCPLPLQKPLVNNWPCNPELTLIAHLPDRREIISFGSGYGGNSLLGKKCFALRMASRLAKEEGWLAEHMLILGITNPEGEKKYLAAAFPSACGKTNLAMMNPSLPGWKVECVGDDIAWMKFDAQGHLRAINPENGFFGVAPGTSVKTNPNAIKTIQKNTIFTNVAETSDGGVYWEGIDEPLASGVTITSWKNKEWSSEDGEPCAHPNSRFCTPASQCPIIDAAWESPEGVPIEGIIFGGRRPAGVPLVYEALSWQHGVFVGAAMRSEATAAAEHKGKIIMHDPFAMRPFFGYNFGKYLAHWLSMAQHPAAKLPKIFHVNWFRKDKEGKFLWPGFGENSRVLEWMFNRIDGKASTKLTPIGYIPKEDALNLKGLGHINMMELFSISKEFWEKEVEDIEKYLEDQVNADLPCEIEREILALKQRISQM

[6] = molecular target: T2, WT GST-PCK1 (human, UniProt P35558 1-622, biotin (G-MM-IGT Biotinylation kit)); experiment: BLI
T2 chain: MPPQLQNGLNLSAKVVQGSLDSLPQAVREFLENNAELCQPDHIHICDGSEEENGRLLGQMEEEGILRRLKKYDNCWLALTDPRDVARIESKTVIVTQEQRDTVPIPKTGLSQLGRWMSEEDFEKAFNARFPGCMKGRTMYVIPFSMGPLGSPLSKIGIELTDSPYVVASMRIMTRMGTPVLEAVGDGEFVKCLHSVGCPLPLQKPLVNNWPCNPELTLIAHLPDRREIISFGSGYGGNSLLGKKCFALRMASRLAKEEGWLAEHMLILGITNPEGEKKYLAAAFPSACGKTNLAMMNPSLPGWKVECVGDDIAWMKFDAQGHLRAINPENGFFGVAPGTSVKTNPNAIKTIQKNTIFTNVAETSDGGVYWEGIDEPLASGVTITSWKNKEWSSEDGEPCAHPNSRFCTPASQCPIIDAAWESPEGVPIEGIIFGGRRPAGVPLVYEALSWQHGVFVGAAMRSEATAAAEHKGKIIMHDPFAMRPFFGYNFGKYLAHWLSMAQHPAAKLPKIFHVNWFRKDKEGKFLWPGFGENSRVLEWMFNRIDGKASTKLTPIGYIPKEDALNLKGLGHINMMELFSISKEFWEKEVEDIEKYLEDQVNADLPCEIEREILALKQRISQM

CC[C@H](C)[C@H](NC(=O)[C@H](CS)NC(=O)[C@@H]1CCCN1C(=O)[C@H](Cc1ccc(O)cc1)NC(=O)[C@H](CC(C)C)NC(=O)CCCC[C@@H]1SC[C@@H]2NC(=O)N[C@@H]21)C(=O)N[C@@H](CC(=O)O)C(=O)N[C@@H](CO)C(=O)N[C@@H](Cc1c[nH]cn1)C(=O)N[C@@H](CC(C)C)C(=O)NCC(=O)N[C@@H](CCC(=O)O)C(=O)N1CCC[C@H]1C(=O)N[C@@H](Cc1c[nH]cn1)C(=O)N[C@@H](CCCCN)C(=O)N[C@@H](Cc1ccccc1)C(=O)N[C@@H](CCCCN)C(=O)N[C@@H](CCCNC(=N)N)C(=O)N[C@@H](CCC(=O)O)C(=O)N[C@@H](C)C(=O)N[C@@H](C)C(=O)N[C@@H](CCC(=O)O)C(=O)N[C@@H](C)C(=O)N[C@@H](C)C(=O)N[C@@H](CCC(N)=O)C(=O)N[C@@H](C)C(=O)N[C@@H](C)C(=O)N[C@@H](CCC(=O)O)C(=O)O [Biotin‐peptide‐TAT LOF] (HELM PEPTIDE1{[O=C1N[C@H]2[C@H](CS[C@H]2CCCCC(=O)[*:2])N1].L.Y.P.C.I.D.S.H.L.G.E.P.H.K.F.K.R.E.A.A.E.A.A.Q.A.A.E}$$$$V2.0)
peptide accumulation in tumor cells in vitro [1]: substantially reduced peptide accumulation

COc1cc2nccc(Oc3ccc(NC(=O)NC4CC4)c(Cl)c3)c2cc1C(N)=O [lenvatinib, reference compound]
Insig1 S207/Insig2 S151 phosphorylation in tumors [2]: reductions were also observed
Ki67 expression in tumors [2]: reductions were also observed
SREBP1 expression and nuclear accumulation in tumors [2]: reductions were also observed
lipid accumulation in tumor tissues (Oil Red O) [3]: reductions were also observed
cell apoptosis in tumor tissues (TUNEL) [4]: induced cell apoptosis in tumor tissues

B1: Insig1/2 loop 1 peptide (143-LYPCIDSHLGEPHKFKRE-160) (peptide)
chain: LYPCIDSHLGEPHKFKRE
Kd [5]: 10.5 µM
Kd [6]: 36.8 µM
